Reference: patent US20240180930A1, “CARBONIC ANHYDRASE 1 (CA1) INHIBITORS FOR THE TREATMENT OR PREVENTION OF MYELOPROLIFERATIVE DISORDERS AND OTHER HEMATOPOIETIC MALIGNANCIES, AND AS BIOMARKER OF MYELOPROLIFERATIVE DISORDERS AND OTHER HEMATOPOIETIC MALIGNANCIES” (COMMISSARIAT A L'ENERGIE ATOMIQUE ET AUX ENERGIES …, priority 2021, published 2024)

Tests used:
ICN1 leukemic cells = experiment: ICN1 leukemia in vivo survival; set-up: species or system mouse
Experimental: ICN1 leukemia. Non-conditioned C57BL/6J (CD45.2) recipient mice were intravenously transplanted with 1.5×10^4 ICN1 leukemic cells in 100 uL of PBS. Seven days after transplantation, when blast cells are detected in the peripheral blood, recipient mice were daily treated or not by intravenous injection of furosemide at 20 mg/Kg.

[1] = test system: mice transplanted with JAK2^V617F BM cells; experiment: Single irradiated-leg mouse model of Polycythemia Vera, pharmacologic treatment; format: in vivo
From the text: Mice. The conditional flexed Jak2^V617F KI mice (Hasan et al.; Blood 122, 1464-1477; 2013) were crossed with VavCre transgenic (TG) mice (Croker et al., SOCS3 Is a Critical Physiological Negative Regulator of G-CSF Signaling and Emergency Granulopoiesis. Immunity 20, 153-165 (2004)) to express the mutant Jak2. To easily evaluate allele burden in kinetic experiments, Jak2^V617F KI/VavCre mice were also crossed with UbiGFP TG mice in Gustave Roussy' animal facilities. For one-leg transplantation, F1 crossed B6.SJL/BoyJ (CD45.1)×C57BL/6J (CD45.2) mice were used as recipient mice. All mice were housed in a specific pathogen-free section at an animal facility of CEA/DRF/IBFJ/iRCM according to the institutional guidelines and French Ministry of Agriculture's regulations.
One leg irradiation and transplantation. Recipient mice were anesthetized with ketamine-xylazine and their leg was fixed on a tray with only the leg left towards the opposite side to their body. The tray was put in the radiation field of a GSRD1 radiation equipment. The mouse body was shielded from irradiation with lead plates and the leg was irradiated at 2×5 Gy with an interval of 17 h. Bone marrow (BM) cells (1×10^7) were intravenously transplanted into the irradiated mice 7 hours after the second irradiation. For barcode and shRNA experiments, 10,000 transduced Lin^−Scal^+cKit^+ (LSK) hematopoietic cells were intrafemorally transplanted into irradiated leg under Isoflurane anesthetic.
Blood analysis. Blood was collected and analyzed through a hemocytometer (CD3700, ABBOTT). The rest of blood was subjected to hemolysis by using an ammonium chloride solution ([…]). The hemolyzed blood were stained with antibodies against CD45.1 (A20) and CD45.2 (104) and analyzed through flow cytometry to examine blood chimerism.
BM cells (femur and tibia) of irradiated leg and of non-irradiated leg were harvested by flushing with 1 mL of PBS. After centrifugation, BM supernatants were collected and kept at -80° C. with anti-protease (ROCHE) for chemokine analyses. BM cells were suspended in PBS and splenocytes were also collected in PBS by crushing spleen on a 70 μm filter. Before hemolysis, cells were stained with Ter119 (TER-119) and CD71 (C2) antibodies for the examination of erythroid compartments. The rest of cells were hemolyzed and stained for analyses of granulocytes, hematopoictic progenitor cells (HPCs) and hematopoietic stem cells (HSCs) by using antibodies against CD45.1 (A20), CD45.2 (104), CD11b (M1/70), Gr-1 (RB6-8C5), c-Kit (2B6), Sca-1 (D7 or E13-161.7), CD34 (RAM34 or MEC14.7), CD16/32 (93), CD48 (HM48-1) and CD150 (TC15-12F12.2). […] For cell cycle analyses, stained HSPCs were permeabilized with Cytofix/Cytoperm buffer following manufacturer's instructions (BD Biosciences) and labelled with anti-Ki67 antibody (SolA15) and Hoechst 33342. All antibodies were purchased from BioLegend, eBioscience, or BD Biosciences. Flow cytometry analyses were performed through FACS Canto II (BD Biosciences) and LSR II (BD Biosciences), and cell sorting was conducted by using FACS Aria II (BD Biosciences). Analyses were performed with the FlowJo software (TRISTAR) and illustrated with the Prism7 software (GraphPad).
Pharmacologic treatment. Furosemide was purchased from Sigma (MKCF8657), dissolved in DMSO for stock solution (50 mg/mL) and diluted in PBS solution prior to use. […] Spironolactone (SIGMA) was prepared in water bottles at 250 mg/Kg to treat recipient mice as described (Rafael-Fortney et al., Early treatment with lisinopril and spironolactone preserves cardiac and skeletal muscle in duchenne muscular dystrophy mice »; Circulation, 2011; 124:582-8). Acetozolamide was purchased from SIGMA (A6011), dissolved in PBS and solubilized with NaOH (35%) until complete dissolution of the product.

[2] = test system: CD34^+ cells from PV patients; experiment: BFU-E from CD34+ cells of PV patients treated with furosemide; format: cell-based, human; conditions: 5 and 20 μg/mL of furosemide, 100% = absence of furosemide
Experimental: FIG. 9: CA1 protein expression and furosemide treatment of CD34^+ cells from PV patients. (A) CA1 protein expression in human CD34^+ cells from control and JAK2^V617F PV patients (left) (n=4) and (B) CA1 expression level normalized against GAPDH expression level (right). (C) Effects of 5 and 20 μg/mL of furosemide on the percentages of BFU-E from CD34^+ cells of PV patients (n=4). 100% is used as percentage of BFU-E in the absence of furosemide (N.T.). N) Relative percentage of JAK2^V617F Variant Allele Frequency (VAF) in the BFU-E after treatment with 5 and 20 ug/mL of furosemide. 100% is used as percentage of VAF in the BFU-E in the absence of furosemide (N.T.). Data are mean +/−s.e.m. Significance was assessed using unpaired 2-tailed t test and two way ANOVA followed by post-hoc analysis (*<0.05, **<0.01, ***<0.001, ****<0.0001).
Whole-transcriptome RNA-seq on CD34+ cell from Patients. The patients were selected for their high JAK2^V617F variant allele frequency (from 60 to 100% VAF). […] The RNA integrity (RNA Integrity Score>7.0) was checked on the Agilent 2100 Bioanalyzer (Agilent) and quantity was determined using Qubit (Invitrogen). […]

Compound	survival rate (ICN1 leukemic cells; furosemide 20 mg/Kg daily intravenous, starting 1 week after transplantation of 1.5×10^4 ICN1 leukemic cells (FIG. 7))	in vivo leukemia progression (ICN1 leukemic cells; furosemide daily, starting 1 week after transplantation (FIG. 7))	therapeutic effect (blood chimerism, spleen weight) ([1]; furosemide 5 mg/Kg daily, starting two weeks after transplantation, compared with 20 mg/Kg (FIG. 8))	survival rate ([1]; furosemide 20 mg/Kg daily intravenous, starting 2 weeks after transplantation (FIG. 4i))	JAK2^V617F cell burden in blood ([1]; furosemide 20 mg/Kg daily intravenous, starting 2 weeks after transplantation of JAK2^V617F BM cells (FIG. 4g))	spleen weight ([1]; furosemide 20 mg/Kg daily intravenous, starting 2 weeks after transplantation, 8 weeks later (FIG. 4h))	PV blood parameters ([1]; furosemide 20 mg/Kg daily intravenous, starting 2 weeks after transplantation, hematocrit and red blood cells count)	JAK2^V617F LT-HSC contribution to the LT-HSC compartment ([1]; furosemide after PV establishment, before treatment (10 weeks) vs end of treatment (31 weeks) (FIG. 4m))	survival ([1]; furosemide daily after PV establishment, starting 10 weeks after transplantation)	blood JAK2^V617F cell burden ([1]; furosemide daily after PV establishment, starting 10 weeks after transplantation (FIG. 4j))	hematocrit ([1]; furosemide daily after PV establishment, starting 10 weeks after transplantation (FIG. 4k))	spleen weight ([1]; furosemide daily after PV establishment, starting 10 weeks after transplantation (FIG. 4l))	JAK2^V617F variant allele frequency in the BFU-E [2]	percentages of BFU-E ([2]; n=4)	PV associated symptoms ([1]; spironolactone 250 mg/Kg in water bottles, starting 2 weeks after transplantation)	survival of mice with PV ([1]; spironolactone 250 mg/Kg in water bottles, starting 2 weeks after transplantation (FIG. 5d))
NS(=O)(=O)c1cc(C(=O)O)c(NCc2ccco2)cc1Cl [Furosemide, 4-chloro-2-(furan-2-ylmethylamino)-5-sulfamoylbenzoic acid]	improved survival rate is also reproduced	Slowing	therapeutic effect similar to the one obtained with 20 mg/Kg	improved	decreased	decreased	decreased	significant decrease	survival of the treated mice	rapid, stable and Furosemide-dependent decrease	decreased	decreased	decreased	decreased		
CC(=O)S[C@@H]1CC2=CC(=O)CC[C@]2(C)[C@H]2CC[C@@]3(C)[C@@H](CC[C@@]34CCC(=O)O4)[C@H]12 [Spironolactone]															no effect	no effect
